Key:
[1] = test system: SARS-CoV-2; experiment: Viral plaque reduction assay; assay type: cell-based; conditions: SARS-CoV-2-infected Vero E6 cells (m.o.i. 0.01), 1 μM and 10 μM, 72 hours; versus pathological control group
[2] = test system: HcoV-229E; experiment: Effect against HCoV-229E in Vero E6 cells (MTT cell viability); assay type: cell-based, human coronavirus 229E
Procedure: Vero E6 cells were divided into 6 groups, including one normal control group, one pathological control group, and four experimental groups (i.e., experimental groups 1 to 4). Each group of the Vero E6 cells was incubated in a respective well of a 96-well culture plate containing 100 μL of E2 medium at 2×10^4 cells/well, followed by cultivation in an incubator (37° C., 5% CO2) for 24 hours. Afterwards, the culture medium in each well was removed, and the cells of the experimental groups 1 to 4 were pretreated with 6-bromo-2-[1-(2,5-dimethylphenyl)-5-methyl-1H-pyrazol-4-yl]-quinoline-4-carboxylic acid (i.e., HP520-3) (Cat. No. Molport-020-176-277, Molport Inc.) respectively at concentrations of 39 nM, 78 nM, 156 nM, and 312 nM, followed by adding 150 μL of the HcoV-229E solution prepared in section 2 of General Experimental Materials. […]
Each group was cultivated in an incubator (37° C., 5% CO2) for 96 hours. […] After cultivation in an incubator (37° C., 5% CO2) for 2 hours, the respective resultant cell culture was added with 150 μL of dimethyl sulfoxide (DMSO), followed by subjecting the mixture thus obtained to determination of absorbance at a wavelength of 590 nm (OD590) by an ELISA reader.
The cell viability rate (%) was calculated using the following Equation (I): […]

[3] = test system: SARS-CoV-2; assay type: cell-based; conditions: Vero E6 cells pretreated at 0.3125 μM, 1.25 μM, and 5 μM, m.o.i. 0.01; normalized against GAPDH; versus pathological control group

For Cc1ccc(C)c(-n2ncc(-c3cc(C(=O)O)c4cc(Br)ccc4n3)c2C)c1 [HP520-3, 6-bromo-2-[1-(2,5-dimethylphenyl)-5-methyl-1H-pyrazol-4-yl]-quinoline-4-carboxylic acid], the “number of viral plaques” value [1] was “lower than that determined in the pathological control group”, the cell viability rate ([2]; HcoV-229E-infected Vero E6 cells pretreated at 39 nM, 78 nM, 156 nM, and 312 nM, versus pathological control group) was “significantly higher than that determined in the pathological control group” and the EC50 ([2]; Human coronavirus 229E, Vero C1008, HcoV-229E-infected Vero E6 cells, 96 hours, MTT, n=3, mean±SD) was 0.141 ± 0.0155 µM. For the same compound, the “relative RNA expression level of E gene of SARS-CoV-2” value [3] was “significantly lower than that of the pathological control group”.

Source: patent US20220088002A1, “METHOD AGAINST CORONAVIRUS INFECTION WITH QUINOLINE COMPOUND” (CHANG GUNG UNIVERSITY, priority 2020, published 2022)
